Test results as given in ChEMBL document CHEMBL4130363, “Synthesis and pharmacological evaluation of benzamide derivatives as potent and selective sigma-1 protein ligands” (Eur J Med Chem, 2017).
pIC50, pKi: −log10 of the molar value. In brackets after ≈: the same amount, converted by molar mass.

Legend:
[1] = target: T1, Adenosine receptor A1 (Homo sapiens) (UniProt P30542); assay: Antagonist activity at recombinant human adenosine A1 receptor assessed as inhibition of agonist-induced cAMP induction at 10 uM by HTRF assay; type: functional
T1 sequence (whole entry): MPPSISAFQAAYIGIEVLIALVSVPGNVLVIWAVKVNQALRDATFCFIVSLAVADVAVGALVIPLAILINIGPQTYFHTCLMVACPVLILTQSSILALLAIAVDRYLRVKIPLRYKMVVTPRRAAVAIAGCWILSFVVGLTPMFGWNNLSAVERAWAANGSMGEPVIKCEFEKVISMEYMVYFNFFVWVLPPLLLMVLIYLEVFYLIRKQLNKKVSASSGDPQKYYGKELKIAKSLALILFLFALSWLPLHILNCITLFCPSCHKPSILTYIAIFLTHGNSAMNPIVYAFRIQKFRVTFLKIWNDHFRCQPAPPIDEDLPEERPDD

[2] = tested on: SH-SY5Y; assay: Cytotoxicity against human SH-SY5Y cells assessed as reduction in cell viability after 72 hrs by MTT assay; type: cell-based
[3] = target: T2, Vasoactive intestinal polypeptide receptor 1 (Homo sapiens) (UniProt P32241); assay: Antagonist activity at recombinant human VPAC1 receptor assessed as inhibition of agonist-induced effect at 10 uM by aequorin reporter based assay; type: functional
T2 sequence (whole entry): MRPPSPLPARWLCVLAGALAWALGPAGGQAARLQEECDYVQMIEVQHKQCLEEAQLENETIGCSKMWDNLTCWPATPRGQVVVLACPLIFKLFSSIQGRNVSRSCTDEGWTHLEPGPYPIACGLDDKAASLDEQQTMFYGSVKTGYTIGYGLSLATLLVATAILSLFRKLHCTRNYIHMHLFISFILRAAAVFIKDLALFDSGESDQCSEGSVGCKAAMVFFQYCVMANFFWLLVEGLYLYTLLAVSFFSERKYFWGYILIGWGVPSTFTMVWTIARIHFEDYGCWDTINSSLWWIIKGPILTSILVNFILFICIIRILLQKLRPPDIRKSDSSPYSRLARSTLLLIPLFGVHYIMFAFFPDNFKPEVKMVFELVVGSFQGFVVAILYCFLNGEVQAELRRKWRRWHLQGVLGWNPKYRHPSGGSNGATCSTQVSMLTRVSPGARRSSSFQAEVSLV

[4] = target: Vasopressin V1a receptor (Homo sapiens) (UniProt P37288); assay: Antagonist activity at recombinant human V1A receptor assessed as inhibition of agonist-induced effect at 10 uM by aequorin reporter based assay; type: functional
Vasopressin V1a receptor (Homo sapiens), sequence (P37288 whole entry, looked up): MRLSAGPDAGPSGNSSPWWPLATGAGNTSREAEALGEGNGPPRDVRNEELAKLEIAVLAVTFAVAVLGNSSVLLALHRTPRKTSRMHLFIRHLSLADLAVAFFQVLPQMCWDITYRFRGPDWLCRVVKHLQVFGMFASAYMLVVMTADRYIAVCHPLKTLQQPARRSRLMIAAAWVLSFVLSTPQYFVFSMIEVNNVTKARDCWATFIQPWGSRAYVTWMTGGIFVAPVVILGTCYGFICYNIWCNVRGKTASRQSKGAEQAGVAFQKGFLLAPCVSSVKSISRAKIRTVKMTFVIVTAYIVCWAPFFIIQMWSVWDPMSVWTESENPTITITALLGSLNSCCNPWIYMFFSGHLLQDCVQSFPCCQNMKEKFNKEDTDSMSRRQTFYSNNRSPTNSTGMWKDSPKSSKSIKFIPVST

[5] = target: T3, Adenosine receptor A3 (Homo sapiens) (UniProt P0DMS8); assay: Antagonist activity at recombinant human adenosine A3 receptor assessed as inhibition of agonist-induced cAMP induction at 10 uM by HTRF assay; type: functional
T3 sequence (whole entry): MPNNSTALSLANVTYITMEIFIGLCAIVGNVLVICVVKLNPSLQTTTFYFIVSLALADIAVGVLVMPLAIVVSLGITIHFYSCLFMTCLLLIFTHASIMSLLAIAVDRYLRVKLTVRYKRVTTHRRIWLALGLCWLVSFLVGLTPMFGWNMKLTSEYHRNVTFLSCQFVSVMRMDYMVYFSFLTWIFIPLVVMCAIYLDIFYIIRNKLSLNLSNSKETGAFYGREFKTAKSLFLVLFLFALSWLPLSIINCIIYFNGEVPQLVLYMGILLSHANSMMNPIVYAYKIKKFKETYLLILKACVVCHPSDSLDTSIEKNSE

[6] = target: 5-hydroxytryptamine receptor 7 (Homo sapiens) (UniProt P34969); assay: Antagonist activity at recombinant human 5-HT7R assessed as inhibition of agonist-induced cAMP induction at 10 uM by HTRF assay; type: functional
5-hydroxytryptamine receptor 7 (Homo sapiens), sequence (P34969 whole entry): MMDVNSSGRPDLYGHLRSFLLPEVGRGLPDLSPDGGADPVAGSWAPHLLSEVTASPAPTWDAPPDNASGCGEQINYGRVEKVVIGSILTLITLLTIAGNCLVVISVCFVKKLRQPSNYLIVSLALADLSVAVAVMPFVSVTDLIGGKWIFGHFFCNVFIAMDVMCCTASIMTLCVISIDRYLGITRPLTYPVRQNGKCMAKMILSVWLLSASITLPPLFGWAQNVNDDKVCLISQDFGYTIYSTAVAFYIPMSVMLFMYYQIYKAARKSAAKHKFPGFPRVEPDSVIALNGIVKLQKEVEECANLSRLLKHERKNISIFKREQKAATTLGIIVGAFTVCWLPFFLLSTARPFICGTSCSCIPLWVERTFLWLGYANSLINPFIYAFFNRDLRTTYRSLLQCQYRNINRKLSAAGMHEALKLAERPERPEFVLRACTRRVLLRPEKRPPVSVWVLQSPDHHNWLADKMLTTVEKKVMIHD

[7] = n-Octanol-PBS buffer distribution coefficient, log D of the compound at pH 7.4; type: physicochemical
[8] = Aqueous solubility of the compound in PBS buffer at pH 7.8; type: physicochemical
[9] = Metabolic stability in human liver microsomes by LC/MS analysis; type: ADME, microsome
[10] = target: Sigma intracellular receptor 2 (Homo sapiens, UniProt Q5BJF2); assay: Displacement of [3H]-DTG from S2R in human Jurkat cell membranes after 1 hr in presence of (+)-pentazocine by liquid scintillation counting
Sigma intracellular receptor 2, sequence (Q5BJF2 whole entry): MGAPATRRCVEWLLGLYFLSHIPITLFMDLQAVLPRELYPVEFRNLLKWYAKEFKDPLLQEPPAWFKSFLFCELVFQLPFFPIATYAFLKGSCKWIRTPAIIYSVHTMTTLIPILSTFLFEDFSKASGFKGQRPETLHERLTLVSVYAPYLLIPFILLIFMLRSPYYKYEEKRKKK

[11] = target: Sigma non-opioid intracellular receptor 1 (Homo sapiens, UniProt Q99720); assay: Displacement of [3H](+)-pentazocine from S1R in human Jurkat cell membranes after 2 hrs by liquid scintillation counting
Sigma non-opioid intracellular receptor 1, sequence (Q99720 whole entry): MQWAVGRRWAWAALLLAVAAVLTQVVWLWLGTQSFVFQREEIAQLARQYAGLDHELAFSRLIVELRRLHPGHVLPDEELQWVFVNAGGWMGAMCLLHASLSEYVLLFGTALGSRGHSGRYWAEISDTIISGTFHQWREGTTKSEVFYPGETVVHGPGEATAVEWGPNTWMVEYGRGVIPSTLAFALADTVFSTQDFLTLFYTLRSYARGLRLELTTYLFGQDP

inhibition [1] [%]	inhibition [3] [%]	inhibition [4] [%]	inhibition [5] [%]	inhibition [6] [%]	logD [7]	solubility [8] [µM]	Stability [9] [%]	pKi [10]	pKi [11]	SMILES	pIC50 [2]
-10	17	36	10							CN(CCCNC(=O)c1ccc(Cl)cc1)CCc1ccccc1	< 4.00
	31	6	18	-9						CN(CCCNC(=O)c1ccc(C(F)(F)F)cc1)Cc1ccccc1	
	7		16	-1	2.51	173 (≈ 54.8 µg/mL)	77			CN(CCCNC(=O)c1ccc(Cl)cc1)Cc1ccccc1	< 4.00
	30	18	-1					6.07	8.44	CN(CCNC(=O)c1ccc(Cl)cc1)Cc1ccccc1	< 4.00
	22	6	5	-2						CN(CCNC(=O)c1ccc([N+](=O)[O-])cc1)Cc1ccccc1	< 4.00
-9	0	11	8	2						CCCc1ccc(C(=O)NCCCN(C)Cc2ccccc2)cc1	
-2	1	3		-3						COc1cccc(C(=O)NCCCN(C)Cc2ccccc2)c1	
	0	6	-7							CN(CCCNC(=O)c1ccc([N+](=O)[O-])cc1)Cc1ccccc1	
	31	14		-4						CN(CCCNC(=O)c1cccc(Br)c1)Cc1ccccc1	< 4.00
		-9	12	-5						COc1ccc(C(=O)NCCCN(C)Cc2ccccc2)cc1	
2	3	9	-6	-2						CN(CCNC(=O)c1ccc(C#N)cc1)Cc1ccccc1	< 4.00
	4	0	24	0						CN(CCCNC(=O)c1ccc(Br)cc1)Cc1ccccc1	
